Test results: patent US20090306098A1 (Cyclacel Limited, priority 2005, published 2009)

Assays:
A549 cells = settings: A549 (value in parentheses), combined with seliciclib
Protocol: Experiments were carried out in 96-well plates and the cell lines seeded at a density of 2000/well for A549 and 3000/well for H460. […] Each HDAC inhibitor was then tested in combination with seliciclib using three different treatment regimes: concomitant, seliciclib pre-treatment followed by HDAC inhibitor and HDAC inhibitor pretreatment followed by seliciclib.
The drug concentrations selected were chosen to span the IC50 values for the drugs tested. In the pre-treatment regimes, the first drug was added 2 h after cells were plated, and left for 24 h. Medium was aspirated and replaced with fresh medium containing the second drug, and incubated for 72 h. The two controls for each sequential treatment involved substituting one of the drug treatments with medium.
Seliciclib was tested in combination with the indicated HDAC inhibitors in H460 and A549 cell lines, using three different treatment regimes. […] Data are the average of at least three independent experiments (Table 1).

H460 cells [1] = assay: Calcusyn drug combination (Alamar blue) in H460 cells; assay type: cell-based; settings: HDAC inhibitor combined with seliciclib
H460 cells [2] = settings: H460, 1×IC50; medium 24 h then seliciclib 24 h; FIG. 6
[3] = HDAC inhibitor 24 h then seliciclib 72 h
[4] = seliciclib 24 h then HDAC inhibitor 72 h

Compound | Combination Index at ED50, HDAC inhibitor pretreatment (A549 cells; [3]) | Combination Index at ED75, HDAC inhibitor pretreatment (A549 cells; [3]) | Combination Index at ED90, HDAC inhibitor pretreatment (A549 cells; [3]) | Combination Index at ED50, Concomitant treatment (A549 cells; both drugs 72 h) | Combination Index at ED75, Concomitant treatment (A549 cells; both drugs 72 h) | Combination Index at ED90, Concomitant treatment (A549 cells; both drugs 72 h) | Combination Index at ED50, Seliciclib pretreatment (A549 cells; [4]) | Combination Index at ED75, Seliciclib pretreatment (A549 cells; [4]) | Combination Index at ED90, Seliciclib pretreatment (A549 cells; [4]) | Combination Index at ED50, HDAC inhibitor pretreatment (H460 cells [1]; [3]) | Combination Index at ED75, HDAC inhibitor pretreatment (H460 cells [1]; [3]) | Combination Index at ED90, HDAC inhibitor pretreatment (H460 cells [1]; [3]) | Combination Index at ED50, Concomitant treatment (H460 cells [1]; both drugs 72 h) | Combination Index at ED75, Concomitant treatment (H460 cells [1]; both drugs 72 h) | Combination Index at ED90, Concomitant treatment (H460 cells [1]; both drugs 72 h) | Combination Index at ED50, Seliciclib pretreatment (H460 cells [1]; [4]) | Combination Index at ED75, Seliciclib pretreatment (H460 cells [1]; [4]) | Combination Index at ED90, Seliciclib pretreatment (H460 cells [1]; [4]) | overall cell cycle distribution (H460 cells [2])
CCCC(=O)[O-].[Na+] [Butyrate, sodium butyrate] | 0.95 | 0.71 | 0.60 | 1.21 | 0.87 | 0.64 | 1.08 | 0.88 | 0.75 | 0.74 | 0.53 | 0.40 | 0.82 | 0.59 | 0.44 | 0.88 | 0.68 | 0.57 | –
CCCC(CCC)C(=O)[O-].[Na+] [Sodium valproate, sodium 2-propylpentanoate] | – | – | – | – | – | – | – | – | – | – | – | 0.84 | – | – | 1.07 | – | – | 0.81 | –
CC[C@H](CO)Nc1nc(NCc2ccccc2)c2ncn(C(C)C)c2n1 [seliciclib, 2-(1-R-hydroxymethylpropylamino)-6-benzylamino-9-isopropylpurine] | – | – | – | – | – | – | – | – | – | – | – | – | – | – | – | – | – | – | no significant impact
